# Experimental data: ChEMBL document CHEMBL1201862, “PubChem BioAssay data set” (2004)
# Calls of active or inactive are those of the source.
# Columns and labels:
# [1] = off-target signal loss in HeLa-CEM21 co-culture – HeLa F-luc CTL cells, cherry-picked, counter-screen for HIV-1 Env fusion inhibitor project, dose response (AID 652040); type: functional, cell-based;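 further: potency for signal decrease marking cytotoxic or nonspecific inhibition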
# [2] = biological target: Neuropeptide Y receptor type 2 (Homo sapiens, UniProt P49146); type: functional, cell-based;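 further: HEK293 cells expressing the receptor and a CNG channel; stimulus was NPY near EC95 followed by isoproterenol to raise cAMP; antagonist potency measured as restoring cAMP signal that NPY suppresses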
# [3] = blockers of HIV-1 envelope-mediated cell-cell fusion – cherry-pick, dose response (AID 652057); type: functional, cell-based
# [4] = viability loss in CEM21 cells – cell-based, plate reader, dry powder, cytotoxicity control, dose response (AID 687026); type: functional
# [5] = viability loss in CEM21 cells – cell-based, CellTiter-Glo luminescence, cherry-picked, cytotoxicity control for viral fusion inhibitor project, dose response (AID 652042); type: functional;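 further: potency for signal decrease meaning cytotoxicity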
# [6] = biological target: Neuropeptide Y receptor type 1 (Homo sapiens, UniProt P25929); type: functional;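 further: HEK293 cells with a CNG channel challenged with NPY then isoproterenol; potency as antagonist that reverses NPY suppression of cAMP signal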
# [7] = Luminescence Cell-Based Dose Confirmation HTS to Identify Inhibitors of Platelet Dense Granule Release. [Related pubchem assays: 1663 (Primary HTS), 1678 (Summary of Project)]; type: functional
# HT-1080 = experiment: HT1080 cell viability loss – fluorescence readout (AID 620); type: functional, cell-based; conditions: Homo sapiens
# [8] = biological target: T1, Luciferin 4-monooxygenase (Photinus pyralis, UniProt P08659); experiment: Counter Screen for Luciferase-based Assay Positives. [Related pubchem assays: 620, 618, 411 ]
# [9] = biological target: T1, Luciferin 4-monooxygenase; experiment: inhibition of purified Photinus pyralis luciferase – biochemical, luminescence, dose response (AID 1891)
# Estrogen receptor = biological target: T2, Estrogen receptor (Homo sapiens, UniProt P03372); experiment: blockers of SRC-3 recruitment to ERα – biochemical, ELISA, streptavidin-HRP readout, orthogonal assay, confirmation (AID 1079)
# T2 sequence (P03372 whole entry): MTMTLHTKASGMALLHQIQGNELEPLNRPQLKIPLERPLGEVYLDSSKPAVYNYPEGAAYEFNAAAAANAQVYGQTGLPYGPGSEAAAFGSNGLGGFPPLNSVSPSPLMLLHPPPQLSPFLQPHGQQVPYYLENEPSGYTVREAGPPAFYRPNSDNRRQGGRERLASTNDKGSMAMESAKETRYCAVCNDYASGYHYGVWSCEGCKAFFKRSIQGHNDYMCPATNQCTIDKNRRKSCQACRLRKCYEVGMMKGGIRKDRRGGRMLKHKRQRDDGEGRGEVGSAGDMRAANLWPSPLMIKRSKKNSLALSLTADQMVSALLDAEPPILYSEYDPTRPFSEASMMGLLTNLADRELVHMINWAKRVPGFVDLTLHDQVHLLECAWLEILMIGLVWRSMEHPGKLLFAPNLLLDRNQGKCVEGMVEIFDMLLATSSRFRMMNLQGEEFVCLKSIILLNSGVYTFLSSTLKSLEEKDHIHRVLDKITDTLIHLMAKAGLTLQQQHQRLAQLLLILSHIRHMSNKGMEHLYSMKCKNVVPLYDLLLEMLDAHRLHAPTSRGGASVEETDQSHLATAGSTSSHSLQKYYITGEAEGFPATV
# [10] = biological target: T3, Zinc finger protein mex-5 (Caenorhabditis elegans, UniProt Q9XUB2); experiment: potency of MEX-5 RNA-binding blockers – biochemical, C. elegans, fluorescence polarization, dose response (AID 1960)
# T3 sequence (Q9XUB2 whole entry): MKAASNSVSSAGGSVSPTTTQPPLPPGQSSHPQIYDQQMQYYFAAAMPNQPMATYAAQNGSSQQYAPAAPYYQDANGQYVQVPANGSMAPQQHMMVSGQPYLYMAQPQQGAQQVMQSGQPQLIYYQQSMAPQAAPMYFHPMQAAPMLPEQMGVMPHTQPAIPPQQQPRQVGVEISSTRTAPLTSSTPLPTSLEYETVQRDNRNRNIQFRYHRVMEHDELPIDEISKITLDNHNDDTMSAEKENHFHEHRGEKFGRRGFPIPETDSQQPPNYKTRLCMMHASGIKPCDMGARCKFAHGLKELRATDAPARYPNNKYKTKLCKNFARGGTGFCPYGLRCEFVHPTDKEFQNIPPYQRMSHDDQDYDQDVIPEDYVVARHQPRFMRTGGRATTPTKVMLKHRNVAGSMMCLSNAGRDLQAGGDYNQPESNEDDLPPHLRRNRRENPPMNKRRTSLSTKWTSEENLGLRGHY
# [11] = biological target: T4, Voltage-gated N-type calcium channel alpha-1B subunit/Amyloid beta A4 precursor protein-binding family A member 1 (Homo sapiens, UniProt Q00975+Q02410); type: protein assay
# [12] = biological target: T4, Voltage-gated N-type calcium channel alpha-1B subunit/Amyloid beta A4 precursor protein-binding family A member 1; type: protein assay; remark: listed apart in the source
# [13] = biological target: T5, RNA-binding protein pos-1 (Caenorhabditis elegans, UniProt G5EF15); experiment: disruptors of C. elegans POS-1 RNA interaction – biochemical, fluorescence polarization, dose response (AID 1964);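 further: purified POS-1 fused to maltose binding protein made in E. coli; potency of compounds blocking POS-1 binding to fluorescent RNA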
# T5 sequence (G5EF15 whole entry): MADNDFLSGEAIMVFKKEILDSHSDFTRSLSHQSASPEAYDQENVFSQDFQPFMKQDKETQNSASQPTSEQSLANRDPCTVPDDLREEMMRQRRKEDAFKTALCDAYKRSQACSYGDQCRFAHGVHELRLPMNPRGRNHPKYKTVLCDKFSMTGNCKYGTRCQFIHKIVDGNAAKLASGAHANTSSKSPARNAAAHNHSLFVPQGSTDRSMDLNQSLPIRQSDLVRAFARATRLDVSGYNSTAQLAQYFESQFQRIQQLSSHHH
# [14] = biological target: DNA (cytosine-5)-methyltransferase 1 (Homo sapiens, UniProt P26358); experiment: inhibition of DNA methylation by DNMT1 – biochemical, fluorescent molecular beacon, confirmation (AID 602386); type: functional
# Hexokinase HKDC1 = biological target: T6, Hexokinase HKDC1 (Homo sapiens, UniProt Q2TB90); experiment: inhibition of HKDC1 glucose phosphorylation – biochemical, W721R variant, dose response (AID 504729); type: functional
# T6 sequence (Q2TB90 whole entry): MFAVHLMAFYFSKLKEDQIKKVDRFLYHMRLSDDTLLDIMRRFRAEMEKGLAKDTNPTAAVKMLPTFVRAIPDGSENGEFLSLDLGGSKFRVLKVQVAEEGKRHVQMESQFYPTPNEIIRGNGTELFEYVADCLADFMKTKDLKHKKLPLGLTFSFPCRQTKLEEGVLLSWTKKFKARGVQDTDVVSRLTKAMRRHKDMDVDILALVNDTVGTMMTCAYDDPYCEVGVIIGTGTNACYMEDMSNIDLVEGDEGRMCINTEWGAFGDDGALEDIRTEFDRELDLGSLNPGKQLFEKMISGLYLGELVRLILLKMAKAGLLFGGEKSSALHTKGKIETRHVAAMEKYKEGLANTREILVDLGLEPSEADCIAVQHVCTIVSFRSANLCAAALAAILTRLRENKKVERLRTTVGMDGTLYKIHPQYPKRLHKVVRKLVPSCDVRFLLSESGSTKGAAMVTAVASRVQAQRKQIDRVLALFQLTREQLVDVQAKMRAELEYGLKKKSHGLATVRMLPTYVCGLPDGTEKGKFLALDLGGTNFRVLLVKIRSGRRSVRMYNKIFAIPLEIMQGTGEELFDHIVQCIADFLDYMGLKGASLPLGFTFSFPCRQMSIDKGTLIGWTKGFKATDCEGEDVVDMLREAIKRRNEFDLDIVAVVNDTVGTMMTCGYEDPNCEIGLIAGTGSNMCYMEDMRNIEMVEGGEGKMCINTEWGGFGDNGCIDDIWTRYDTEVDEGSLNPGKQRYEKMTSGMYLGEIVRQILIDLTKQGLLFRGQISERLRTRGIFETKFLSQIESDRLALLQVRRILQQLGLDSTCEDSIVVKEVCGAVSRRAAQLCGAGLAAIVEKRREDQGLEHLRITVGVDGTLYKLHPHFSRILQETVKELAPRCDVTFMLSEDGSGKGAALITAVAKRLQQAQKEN
# Bcl-2-like protein 1 = Bcl-2-like protein 1 (Homo sapiens, UniProt Q07817); experiment: blockers of BCLXL peptide binding – biochemical, fluorescence polarization, 1536-well, selectivity assay for MCL1 inhibitor project, dose response (AID 2218)
# [15] = biological target: Induced myeloid leukemia cell differentiation protein Mcl-1 (Homo sapiens, UniProt Q07820); experiment: blockers of MCL1 binding to BIM peptide – biochemical, fluorescence polarization, BIM-BH3 peptide, 1536-well, dose response (AID 2217)
# Bcl-2-like protein 10 = biological target: T7, Bcl-2-like protein 10 (Homo sapiens, UniProt Q9HD36); experiment: Concentration-response of Bcl-B inhibitors by biochemical FP with TR3 (AID 1243); type: functional
# T7 sequence (Q9HD36 whole entry): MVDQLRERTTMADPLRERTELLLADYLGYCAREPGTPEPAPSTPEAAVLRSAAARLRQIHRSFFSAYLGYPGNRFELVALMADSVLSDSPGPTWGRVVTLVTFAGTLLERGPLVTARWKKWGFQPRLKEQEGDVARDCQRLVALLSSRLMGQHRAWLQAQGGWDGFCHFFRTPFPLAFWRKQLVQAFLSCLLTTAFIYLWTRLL
# [16] = HEK-293T viability loss after treatment – luminescence, T-cell screen hits, cytotoxicity control for TCR NF-kB inhibitor project, dose response (AID 489026); type: functional, cell-based;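 further: cells exposed to compound about 14 hours before the viability readout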
# [17] = biological target: Sphingosine 1-phosphate receptor 3 (Homo sapiens, UniProt Q99500); experiment: Dose response cell-based high throughput screening assay for antagonists of the Sphingosine 1-Phosphate Receptor 3 (S1P3). [Related pubchem assays: 1429, 485 ]; type: functional
# [18] = blockade of melanocortin 4 receptor signaling – cell-based, plate reader, cherry pick, counter-screen for LGR2 antagonist project, dose response (AID 743444); type: functional;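 further: transfected HEK 293 cells stimulated with alpha-MSH peptide; potency of inhibitors of the alpha-MSH evoked signal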
# [19] = toxicity toward HepG2 liver cells – cell-based, plate reader, cherry-pick, antagonist series, cytotoxicity control, dose response (AID 743416); type: functional
# INS1 = experiment: INS-1E survival protection against cytokine death – cell-based, luminescence, retest, dose response (AID 449756); type: functional; conditions: Rattus norvegicus;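 further: cell death triggered by IL-1 beta plus TNF-alpha plus IFN-gamma mixture; protective hits raise ATP signal compared with cytokine alone wells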
# [20] = biological target: Neurotensin receptor type 1 (Homo sapiens, UniProt P30989); type: functional;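 further: Image-based confirmatory dose-response assay measuring agonist activity at NTR1; NTR1-expressing U2OS osteosarcoma cells imaged for beta-arrestin GFP spot formation; agonist potency where compounds increase beta-arrestin recruitment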
# [21] = Luminescence Cell-Based Dose Response HTS to Identify Activators of Luciferase Translation or Activity in H4 […] Cells. [Related pubchem assays: 1829 (Project Summary), 1814 (Primary HTS)]; type: functional
# H4 = experiment: Luminescence Cell-Based Dose Response HTS to Identify Activators of 5'UTR Stem-Loop Driven Prion Protein mRNA Translation in H4 Neuroglioblastoma Cells. [Related pubchem assays: 1829 (Project Summary), 1814 (Primary HTS)]; type: functional; conditions: Homo sapiens
# [22] = Luminescence Cell-Based Dose Confirmation HTS to Identify Activators of 5'UTR Stem-Loop Driven Alpha-Synuclein mRNA Translation in H4 Neuroglioblastoma Cells. [Related pubchem assays: 1829 (Project Summary), 1814 (Primary HTS)]; type: functional
# [23] = biological target: 5-hydroxytryptamine receptor 1E (Homo sapiens, UniProt P28566); experiment: Counterscreen assay for S1P3 antagonists: Dose response cell-based high throughput screening assay to identify antagonists of the 5-Hydroxytryptamine Receptor Subtype 1E (5HT1E). [Related pubchem assays: 1429, 485 ]; type: functional
# [24] = blockers of bursicon-stimulated LGR2 cAMP reporter – cell-based, HEK293, CRE-luciferase reporter, cherry pick, set 2, dose response (AID 743343); type: functional;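 further: transfected cells were stimulated with diluted bursicon conditioned medium after compound addition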
# [25] = Luminescence-based counterscreen assay for KLF5 inhibitors: dose response cell-based high throughput screening assay to identify cytotoxic compounds using the IEC-6 intestinal epithelial cell line. [Related pubchem assays: 1700 (Primary screen.), 1834 (Confirmation screen.), 1858 (Summary AID.), 1905 (Counterscreen.)]; type: functional
# [26] = alpha-synuclein stem-loop luciferase translation blockers – H4 neuroglioma cells, luminescence, confirmation (AID 1988); type: functional, cell-based
# [27] = Luminescence Cell-Based Dose Response HTS to Identify Inhibitors of 5'UTR Stem-Loop Driven Prion Protein mRNA Translation in H4 Neuroglioblastoma Cells. [Related pubchem assays: 1827 (Project Summary), 1813 (Primary HTS)]; type: functional
# Vero = experiment: viability of Vero cells under compound – cytotoxicity control for flavivirus capping enzyme inhibitors (AID 588742); type: functional; conditions: Chlorocebus sabaeus
# [28] = CCR5-tropic HIV-1 fusion blockers – cell-based, CCR5-tropic Env, dose response (AID 2279); type: functional
# Genome polyprotein = Genome polyprotein (dengue virus type 2, UniProt P29990); experiment: flavivirus cap methylation enzyme inhibition – biochemical, confirmation dose response, primary screen (AID 588689); type: functional
# T4 sequence (Q00975 whole entry): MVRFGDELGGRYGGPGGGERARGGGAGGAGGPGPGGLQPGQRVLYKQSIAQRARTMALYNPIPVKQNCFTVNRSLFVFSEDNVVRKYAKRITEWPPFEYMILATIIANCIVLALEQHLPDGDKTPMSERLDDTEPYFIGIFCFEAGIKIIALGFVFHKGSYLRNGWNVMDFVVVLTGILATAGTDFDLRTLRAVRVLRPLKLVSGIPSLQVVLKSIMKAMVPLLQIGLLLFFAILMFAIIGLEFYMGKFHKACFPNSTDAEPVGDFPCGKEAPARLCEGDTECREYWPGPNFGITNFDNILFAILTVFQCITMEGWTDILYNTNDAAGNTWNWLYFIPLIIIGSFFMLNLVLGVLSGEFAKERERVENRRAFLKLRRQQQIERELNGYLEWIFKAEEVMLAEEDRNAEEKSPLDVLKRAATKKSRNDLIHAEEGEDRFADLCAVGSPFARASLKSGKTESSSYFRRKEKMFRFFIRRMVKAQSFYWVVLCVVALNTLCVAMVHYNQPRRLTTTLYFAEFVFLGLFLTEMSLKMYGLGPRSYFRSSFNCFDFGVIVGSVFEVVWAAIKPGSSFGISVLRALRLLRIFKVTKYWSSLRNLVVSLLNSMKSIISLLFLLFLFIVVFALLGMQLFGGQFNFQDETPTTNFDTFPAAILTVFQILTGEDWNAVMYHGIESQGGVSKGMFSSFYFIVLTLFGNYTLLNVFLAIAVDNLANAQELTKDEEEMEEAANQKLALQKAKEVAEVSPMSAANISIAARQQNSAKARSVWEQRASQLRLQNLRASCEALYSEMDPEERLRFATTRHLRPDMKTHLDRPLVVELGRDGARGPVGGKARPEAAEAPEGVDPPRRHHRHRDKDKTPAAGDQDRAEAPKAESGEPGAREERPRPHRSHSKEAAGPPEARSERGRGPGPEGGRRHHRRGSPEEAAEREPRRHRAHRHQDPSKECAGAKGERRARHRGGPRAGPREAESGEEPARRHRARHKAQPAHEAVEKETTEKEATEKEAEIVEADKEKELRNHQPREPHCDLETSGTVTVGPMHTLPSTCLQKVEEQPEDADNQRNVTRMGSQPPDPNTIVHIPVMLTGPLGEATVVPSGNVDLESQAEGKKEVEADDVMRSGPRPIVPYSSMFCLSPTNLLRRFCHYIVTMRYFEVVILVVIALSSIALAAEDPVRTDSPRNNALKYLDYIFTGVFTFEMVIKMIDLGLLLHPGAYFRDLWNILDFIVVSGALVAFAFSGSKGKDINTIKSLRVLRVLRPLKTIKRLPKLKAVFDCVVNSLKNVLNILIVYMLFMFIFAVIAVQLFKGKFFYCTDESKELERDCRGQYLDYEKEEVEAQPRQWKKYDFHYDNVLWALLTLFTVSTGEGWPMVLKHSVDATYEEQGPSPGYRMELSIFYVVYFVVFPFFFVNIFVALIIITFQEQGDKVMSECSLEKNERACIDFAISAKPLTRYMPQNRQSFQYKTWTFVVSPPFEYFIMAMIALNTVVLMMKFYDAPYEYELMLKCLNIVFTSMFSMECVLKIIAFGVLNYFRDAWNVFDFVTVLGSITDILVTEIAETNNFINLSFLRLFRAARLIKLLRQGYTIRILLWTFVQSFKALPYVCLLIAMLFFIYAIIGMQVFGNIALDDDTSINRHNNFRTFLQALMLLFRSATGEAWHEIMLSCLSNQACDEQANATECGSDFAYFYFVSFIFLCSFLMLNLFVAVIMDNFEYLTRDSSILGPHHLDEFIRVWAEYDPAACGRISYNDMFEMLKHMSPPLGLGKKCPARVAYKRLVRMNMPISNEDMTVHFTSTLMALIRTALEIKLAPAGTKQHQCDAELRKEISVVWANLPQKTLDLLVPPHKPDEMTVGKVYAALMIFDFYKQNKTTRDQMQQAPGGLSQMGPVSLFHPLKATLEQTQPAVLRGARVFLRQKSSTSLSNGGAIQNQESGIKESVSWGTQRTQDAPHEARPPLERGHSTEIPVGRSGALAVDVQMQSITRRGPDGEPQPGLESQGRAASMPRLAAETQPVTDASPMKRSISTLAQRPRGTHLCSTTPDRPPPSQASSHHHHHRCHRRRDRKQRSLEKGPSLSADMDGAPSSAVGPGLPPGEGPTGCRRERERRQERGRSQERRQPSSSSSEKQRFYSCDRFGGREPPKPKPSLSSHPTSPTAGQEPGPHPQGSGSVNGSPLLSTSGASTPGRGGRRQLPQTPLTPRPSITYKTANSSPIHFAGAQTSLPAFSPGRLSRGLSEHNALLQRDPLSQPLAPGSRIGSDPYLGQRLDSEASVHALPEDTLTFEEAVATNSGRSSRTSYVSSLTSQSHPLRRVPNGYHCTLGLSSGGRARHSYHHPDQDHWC
# T4 sequence (Q02410 whole entry): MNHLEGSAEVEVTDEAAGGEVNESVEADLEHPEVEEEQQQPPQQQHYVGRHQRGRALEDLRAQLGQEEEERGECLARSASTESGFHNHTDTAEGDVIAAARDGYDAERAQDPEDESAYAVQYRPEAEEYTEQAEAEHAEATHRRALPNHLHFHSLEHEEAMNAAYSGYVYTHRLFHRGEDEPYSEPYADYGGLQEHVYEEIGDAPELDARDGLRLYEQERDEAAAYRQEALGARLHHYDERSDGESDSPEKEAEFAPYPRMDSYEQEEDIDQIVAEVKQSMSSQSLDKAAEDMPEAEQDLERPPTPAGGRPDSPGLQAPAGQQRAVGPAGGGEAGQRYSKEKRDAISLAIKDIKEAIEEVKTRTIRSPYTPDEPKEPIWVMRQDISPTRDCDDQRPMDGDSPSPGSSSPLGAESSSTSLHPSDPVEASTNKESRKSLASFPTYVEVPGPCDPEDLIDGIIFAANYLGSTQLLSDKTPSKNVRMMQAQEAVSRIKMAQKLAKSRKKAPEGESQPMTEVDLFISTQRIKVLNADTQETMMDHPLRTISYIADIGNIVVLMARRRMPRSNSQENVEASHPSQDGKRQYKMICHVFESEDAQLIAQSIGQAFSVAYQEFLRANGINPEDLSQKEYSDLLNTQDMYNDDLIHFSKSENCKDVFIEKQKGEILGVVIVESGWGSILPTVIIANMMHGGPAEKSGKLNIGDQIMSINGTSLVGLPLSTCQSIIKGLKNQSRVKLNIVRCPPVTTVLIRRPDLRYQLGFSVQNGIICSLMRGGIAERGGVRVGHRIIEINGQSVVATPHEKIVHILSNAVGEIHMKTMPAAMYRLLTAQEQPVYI
# T1 sequence (P08659 whole entry): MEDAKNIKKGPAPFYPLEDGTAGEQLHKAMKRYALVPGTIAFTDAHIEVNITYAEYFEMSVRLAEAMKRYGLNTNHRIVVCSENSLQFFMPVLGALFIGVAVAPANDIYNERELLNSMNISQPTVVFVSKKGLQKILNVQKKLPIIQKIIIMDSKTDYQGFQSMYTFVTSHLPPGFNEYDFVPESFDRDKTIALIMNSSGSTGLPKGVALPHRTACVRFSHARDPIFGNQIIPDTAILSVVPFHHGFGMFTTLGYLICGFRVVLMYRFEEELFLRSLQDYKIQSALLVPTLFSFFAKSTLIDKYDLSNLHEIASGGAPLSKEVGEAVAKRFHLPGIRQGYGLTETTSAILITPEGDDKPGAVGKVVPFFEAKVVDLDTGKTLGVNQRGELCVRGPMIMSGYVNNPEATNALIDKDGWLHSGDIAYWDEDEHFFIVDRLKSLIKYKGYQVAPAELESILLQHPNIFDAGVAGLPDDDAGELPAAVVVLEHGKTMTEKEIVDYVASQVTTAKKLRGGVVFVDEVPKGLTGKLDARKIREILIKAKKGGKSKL
# Sequence of Bcl-2-like protein 1 (Q07817 whole entry): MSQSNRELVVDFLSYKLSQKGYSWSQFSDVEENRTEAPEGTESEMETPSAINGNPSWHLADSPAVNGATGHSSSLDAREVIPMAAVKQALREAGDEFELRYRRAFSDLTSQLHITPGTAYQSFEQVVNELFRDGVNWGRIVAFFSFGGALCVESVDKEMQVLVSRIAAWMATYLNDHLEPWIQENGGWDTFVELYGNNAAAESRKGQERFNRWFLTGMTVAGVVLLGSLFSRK
# Sequence of Neurotensin receptor type 1 (P30989 whole entry): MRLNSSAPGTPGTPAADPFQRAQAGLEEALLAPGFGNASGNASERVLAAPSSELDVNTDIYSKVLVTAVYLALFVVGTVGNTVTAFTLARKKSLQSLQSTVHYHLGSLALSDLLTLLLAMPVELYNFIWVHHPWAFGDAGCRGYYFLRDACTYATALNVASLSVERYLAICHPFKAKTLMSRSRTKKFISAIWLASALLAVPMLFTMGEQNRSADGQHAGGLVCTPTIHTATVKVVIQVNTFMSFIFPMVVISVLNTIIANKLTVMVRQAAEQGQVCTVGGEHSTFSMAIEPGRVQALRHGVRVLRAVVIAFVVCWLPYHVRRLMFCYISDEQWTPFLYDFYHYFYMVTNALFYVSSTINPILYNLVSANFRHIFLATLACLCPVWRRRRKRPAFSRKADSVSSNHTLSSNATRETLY
# Sequence of Neuropeptide Y receptor type 1 (P25929 whole entry): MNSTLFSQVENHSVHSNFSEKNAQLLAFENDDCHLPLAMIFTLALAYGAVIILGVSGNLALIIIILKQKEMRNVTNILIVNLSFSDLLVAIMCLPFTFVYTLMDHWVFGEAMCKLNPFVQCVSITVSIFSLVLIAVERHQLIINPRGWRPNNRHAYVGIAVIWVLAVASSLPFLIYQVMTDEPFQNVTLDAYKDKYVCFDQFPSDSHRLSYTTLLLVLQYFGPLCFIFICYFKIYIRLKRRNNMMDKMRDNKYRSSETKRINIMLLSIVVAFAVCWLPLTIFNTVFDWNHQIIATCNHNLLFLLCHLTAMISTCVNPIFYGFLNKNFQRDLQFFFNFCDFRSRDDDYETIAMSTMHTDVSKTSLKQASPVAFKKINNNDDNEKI
smiles,measurement,setting,value
COc1ccccc1CCNCc1ccc(OC)c(OCc2ccccc2)c1,AC50,[1],> 70 µM (inactive)
same,IC50,[2],1.97 µM (active)
same,AC50,[3],2.11 µM (active)
same,AC50,[4],> 70 µM (inactive)
same,AC50,[5],54.1 µM (active)
same,IC50,[6],9.05 µM (active)
Cc1ccsc1/C=C1\CCc2ccccc2C1=O,EC50,[7],2.43 µM (active)
same,EC50,HT-1080,> 50 µM (not active)
same,EC50,[8],0.89 µM (active)
same,EC50,[9],0.518 µM (active)
COc1cc2[nH]c(=S)n(CCCC(=O)N3CCN(c4cccc(Cl)c4)CC3)c(=O)c2cc1OC,IC50,Estrogen receptor,2.36 µM (not active)
O=C(CNC(=O)/C=C/c1ccco1)N=Nc1c(O)[nH]c2ccccc12,EC50,[10],5.49 µM (active)
same,IC50,[11],> 56.8 µM (not active)
same,IC50,[12],4.97 µM (active)
same,EC50,[13],13.1 µM (inconclusive)
same,IC50,[14],3.25 µM (active)
same,IC50,Hexokinase HKDC1,25.3 µM (inactive)
same,IC50,Bcl-2-like protein 1,37.1 µM (not active)
same,IC50,[15],9.7 µM (active)
Cc1ccc(C(=O)c2coc3c2C(=O)C(=O)C(Cl)=C3Cl)cc1,EC50,Bcl-2-like protein 10,6.17 µM (active)
COc1ccc(CC(=O)Nc2cccc(-c3nnc(-c4cccc(C)c4)o3)c2)cc1OC,IC50,[16],2.35 µM (active)
same,IC50,[17],5.21 µM (active)
same,AC50,[18],10.5 µM (active)
same,AC50,[19],47.6 µM (active)
same,AC50,INS1,2.47 µM (active)
same,EC50,[20],29.5 µM (inactive)
same,EC50,[21],6.16 µM (active)
same,EC50,H4,118 µM (active)
same,EC50,[22],15 µM (active)
same,IC50,[23],1.76 µM (active)
same,AC50,[24],8.16 µM (active)
CN(C)c1ccc(/C=C/c2nc(O)c3ccccc3n2)cc1,IC50,[25],32.3 µM (not active)
same,EC50,[26],5.96 µM (active)
same,EC50,[27],4.08 µM (active)
CC(C)(C)c1ccc(OCC(=O)NNC(=S)NC(=O)c2ccccc2[N+](=O)[O-])c(Br)c1,CC50,Vero,> 40 µM (active)
same,IC50,[28],> 50 µM (active)
same,IC50,Genome polyprotein,56 µM (active)
